Experiments:
[1] = Test Example 2: dissolution test, JP Pharmacopoeia dissolution test 2nd fluid (pH 6.8), paddle method; assay type: physicochemical; settings: dissolution test 2nd fluid pH 6.8, 37 °C, paddle 100 rpm, after 120 min
[2] = Test Example 1: dissolution test, JP Pharmacopoeia dissolution test 1st fluid (pH 1.2), paddle method; assay type: physicochemical; settings: dissolution test 1st fluid pH 1.2, 37 °C, paddle 100 rpm, at 60 min

Row | dissolution rate [1] [%] | dissolution rate [2] [%] | Compound
1 | ~80 | 90 | COc1cc2c(cc1NS(C)(=O)=O)OC(C)(C)[C@H](O)[C@H]2NCCc1ccccc1.Cl (relative stereo) [A形結晶, N−{(3R*,4S*)−3−ヒドロキシ−6−メトキシ−2,2−ジメチル−4−(フェネチルアミノ)クロマン−7−イル}メタンスルホンアミド塩酸塩]
2 | ~65 | 90 | COc1cc2c(cc1NS(C)(=O)=O)OC(C)(C)[C@H](O)[C@H]2NCCc1ccccc1 (relative stereo) [フリー体, N−{(3R*,4S*)−3−ヒドロキシ−6−メトキシ−2,2−ジメチル−4−(フェネチルアミノ)クロマン−7−イル}メタンスルホンアミド]

From patent publication JP2015020973A, “クロマン化合物塩酸塩の結晶形態及びその製造法” (Nissan Chemical Corp, priority 2013, dated 2015)
